Data taken from patent US11690832B2, “Treatment of autoimmune diseases with combinations of RXR agonists and thyroid hormones” (Io Therapeutics, Inc., priority 2016, dated 2023).
Entries after “also recorded” stand apart in the source; their conditions may differ.

Legend:
EAE in C57BL/6 (B6) mice = test: CNS infiltrating cells in EAE mice (FACS, day 20); assay type: in vivo, mouse; settings: day 20 after immunization, vs vehicle control
Protocol: To determine whether a RXR agonist can reduce central nervous system (CNS) infiltrating cells, C57BL/6 (B6) mice were treated as described in Example 6. On day 20 after immunization, mice were sacrificed and perfused with phosphate buffered saline (PBS). Brain and spinal cord tissue was isolated, digested with DNase and Liberase DL (Roche Diagnostics, Indianapolis, Ind.) for 30 minutes, and homogenized through 70 micron nylon mesh filters. Resulting cells were placed over a Percoll gradient to remove myelin. The remaining cells (microglia and CNS infiltrating cells) were counted, stained for molecules of interest, and run on a flow cytometer. Based on the frequencies obtained by FACS of these cell populations, total cell numbers of CNS infiltrating leukocytes expressing CD45, including CD4^+ T cells and CD11c^+ CD11b^+ myeloid dendritic cells (DC), were calculated.

[1] = test system: cuprizone/rapamycin demyelination in C57BL/6J mice; test: 12-week cuprizone/rapamycin demyelination model, 6 weeks of treatment (remyelination); assay type: in vivo, mouse; settings: 10 mg/kg PO daily for 6 weeks after 12 weeks CR
From the text: All animals were sacrificed after 12 weeks of CR or after further 6 weeks of treatment to evaluate myelin in white matter (corpus callosum) and gray matter (hippocampus and cortex). In addition, the size of myelinated axons was quantified and the large myelinated axons were further assessed by 3D-electron microscopy (3D-EM). A total of 40 animals were included in the study, where all 40 animals received CR demyelination for 12 weeks. After demyelination, a subset (n=10) of animals are sacrificed to serve as controls to assess baseline demyelination. […] Floating brain sections are immunostained with myelin prolipid protein (PLP) to visualize and quantify myelin in gray matter, hippocampus (FIG. 16A) and cortex (FIG. 16B).

RARα = RARα (Homo sapiens, UniProt P10276); settings: at ≥1 μM
Protocol: To determine whether a RXR agonist can mediate its effects via RXRα receptor homodimers, RXRβ receptor homodimers, RXRγ receptor homodimers, or any combination thereof, or the corresponding RAR/RXR heterodimers, receptor-mediated transactivation assays were performed. For transactivation assays assessing RXR homodimer signaling, CV-1 cells were transfected with 1) an expression construct including a full length RXRα, RXRβ, or RXRγ; and 2) a rCRBPII/RXRE-tk-Luc reporter construct that included RXR homodimer-specific RXRE/DR1 responsive element linked to a luciferase gene. For transactivation assays assessing RAR/RXR heterodimer signaling, CV-1 cells were transfected with 1) an expression construct comprising a fusion protein including an estrogen receptor (ER) DNA binding domain linked to the ligand binding domain of RARα, RARβ, or RARγ and 2) a ERE-tk-Luc reporter construct that included an estrogen receptor responsive element linked to a luciferase gene. […] Data are mean values ±SE from five independent experiments.

[2] = test system: ethidium bromide demyelination of caudal cerebellar peduncles in one year old rats; test: Focal toxin (ethidium bromide) induced rat model of demyelination; assay type: in vivo; settings: IRX4204 10 mg/kg/day oral
Protocol: The experiment uses rats of relatively advanced age (1 year) since such rats undergo remyelination in a less efficient manner, thereby providing data that are more relevant to the clinical treatment of human patients with multiple sclerosis or other demyelination disorders.
Focal demyelination is induced in one year old rats (approximately 300 g in weight) by injecting stereotactically 5 μl of ethidium bromide solution (0.01% vol/vol in saline) in a bilateral manner into the caudal cerebellar peduncles (CCP). […] The rats are killed on day 24 post-ethidium bromide treatment for analysis of remyelination by quantitative polymerase chain reaction (qPCR) and microscopy.

RXRγ = biological target: T1, RXRγ (Homo sapiens, UniProt P48443); test: RXR homodimer transactivation assay (rCRBPII/RXRE-tk-Luc reporter) in CV-1 cells; assay type: cell-based
T1 construct: an expression construct including a full length RXRα, RXRβ, or RXRγ; expressed in transfected cells; host or cells: CV-1
T1 sequence (P48443 1-463): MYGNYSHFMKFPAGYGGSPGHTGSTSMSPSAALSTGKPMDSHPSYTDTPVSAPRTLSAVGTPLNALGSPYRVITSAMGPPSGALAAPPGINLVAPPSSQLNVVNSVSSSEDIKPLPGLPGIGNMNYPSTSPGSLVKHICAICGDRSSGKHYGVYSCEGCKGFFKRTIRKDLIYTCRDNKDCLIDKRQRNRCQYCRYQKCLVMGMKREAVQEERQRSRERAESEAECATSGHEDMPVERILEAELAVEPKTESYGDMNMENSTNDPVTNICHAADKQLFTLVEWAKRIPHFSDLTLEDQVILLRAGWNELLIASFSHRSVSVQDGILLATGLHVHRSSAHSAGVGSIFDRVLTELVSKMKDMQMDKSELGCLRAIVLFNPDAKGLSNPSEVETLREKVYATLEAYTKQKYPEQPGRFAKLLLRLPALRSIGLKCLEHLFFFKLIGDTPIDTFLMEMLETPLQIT

EAE in B6 mice = test: EAE dose titration experiment with spleen and CNS flow cytometry; assay type: in vivo, mouse; settings: 200 μg/day vs vehicle control
Protocol: A dose titration experiment was also conducted in EAE mice. EAE was induced in 28 B6 mice with MOG/CFA and PT as above. Mice were scored on day 7 as indicated above and divided into groups by score so means are as equal as possible.
At the completion of the experiment, the vehicle control and 200 μg/day groups were euthanized and spleen and CNS samples obtained.
Additionally, CD4+ CD25hi cells (generally consisting of TReg) were reduced, although the frequency was not altered (FIGS. 9A and 9B).
Restimulation with PMA/lonomycin was used to help detect the cytokine production.

LXRα/RXR = test: Permissive heterodimer transactivation assay, 3x(PLTP/LXRE)-tk-Luc in CV-1 cells; assay type: cell-based; settings: 20 hr; relative to T0901317
From the text: (§1) For PPARγ: CV-1 cells were transfected with 3×(rAOX/DR1)-tk-Luc reporter gene and an expression vector for PPARγ. For FXR:CV-1 cells were transfected with 3×(IBABP/IRI)-tk-Luc reporter gene and vectors for FXR and RXRα. For LXR:CV-1 cells were transfected with 3×(PLTP/LXRE)-tk-Luc reporter gene with vectors for LXRα or LXRβ. For Nurr1: COS7 cells were transfected with 3×NBRE-tk-luc reporter gene and full length Nurr-1 with or without full-length RXRα plasmid. […] Luciferase data were normalized to co-transfected β-gal activity. Luciferase activity was expressed as percent of maximal activity obtained using specific agonists. Rosiglitazone (PPARγ), GW4064 (FXR), T0901317 (LXR).

LXRβ/RXR = test: as above; assay type: cell-based; settings: 20 hr; relative to T0901317
From the text: as §1

[3] = test system: Naive CD4+ CD25− FoxP3− cells; test: T cell differentiation under Th17 cell differentiation conditions (Foxp3, IL-17A); assay type: cell-based, mouse; settings: 0, 1, 10, 100 nM, with increasing concentration
Protocol: To determine whether a RXR agonist can regulate T cell differentiation, the ability of an RXR agonist to promote Treg cell differentiation and inhibit Th17 cell differentiation under Th17 cell differentiation conditions was assessed by monitoring Foxp3 and IL-17A expression. Naive CD4^+ CD25^− FoxP3^− cells were purified from a Foxp3-GFP mouse using flow cytometry by sorting and isolating based upon a GFP^− phenotype.

FXR/RXR = biological target: T2, FXR/RXR (Homo sapiens, UniProt P19793); test: Permissive heterodimer transactivation assay, 3x(IBABP/IRI)-tk-Luc in CV-1 cells; assay type: cell-based; settings: 20 hr; relative to GW4064
T2 construct: expressed in transfected cells; host or cells: CV-1
From the text: as §1

[4] = test system: oligodendrocyte precursor cells (OPCs); test: Oligodendrocyte precursor cell differentiation (PLP-EGFP, Cellomics); assay type: cell-based, mouse; settings: compared to negative control (DMSO)
From the text: OPCs were generated from a neurosphere culture of E14.5 PLP-EGFP (on C57BL/6J background) mouse brains. […] The EGFP expressing cells were quantified with Cellomics Neuronal Profiling Algorithm.
The EGFP expressing cells in controls and all compounds were quantified with Cellomics Neuronal Profiling Algorithm.

[5] = test system: cuprizone plus rapamycin (CR) demyelination in C57BL/6J mice
From the text: Animals (8 week-old male C57BL/6J mice) were subjected to cuprizone diet plus rapamycin injections (CR) for 6 weeks to induce demyelination. […] All animals were sacrificed after 6 weeks of CR to evaluate axonal integrity and microglial/macrophage activity in the white matter (corpus callosum, CC).
A total of 50 animals were included in the study, where 43 animals received CR demyelination for 6 weeks. During demyelination, a subset (n=7) of animals were kept on normal diet to serve as naïve age-matched controls.

[6] = test system: Naive CD4+ CD25− FoxP3− cells; test: Treg cell differentiation with RXR agonist in the presence of pan-RAR antagonist; assay type: cell-based, mouse; settings: 1 nM or 10 nM 194310 with IRX4204 at 1.0 nM; Treg conditions
Protocol: Naive CD4^+ CD25^− FoxP3^− cells were purified from a Foxp3-GFP mouse using flow cytometry by sorting and isolating based upon a GFP^− phenotype. These cells were then cultured under Treg cell differentiation conditions by treating the cells with αCD3 and αCD28 polyclonal antibodies in the presence of IL-2 and TGF-β. […] The cultured cells were then assayed for the expression of Foxp3. […] However, this partial inhibition of Fox3p expression may actually be due to the blocking of the effects of endogenous RA in the culture medium.

T2 sequence (Q96RI1 whole entry partner): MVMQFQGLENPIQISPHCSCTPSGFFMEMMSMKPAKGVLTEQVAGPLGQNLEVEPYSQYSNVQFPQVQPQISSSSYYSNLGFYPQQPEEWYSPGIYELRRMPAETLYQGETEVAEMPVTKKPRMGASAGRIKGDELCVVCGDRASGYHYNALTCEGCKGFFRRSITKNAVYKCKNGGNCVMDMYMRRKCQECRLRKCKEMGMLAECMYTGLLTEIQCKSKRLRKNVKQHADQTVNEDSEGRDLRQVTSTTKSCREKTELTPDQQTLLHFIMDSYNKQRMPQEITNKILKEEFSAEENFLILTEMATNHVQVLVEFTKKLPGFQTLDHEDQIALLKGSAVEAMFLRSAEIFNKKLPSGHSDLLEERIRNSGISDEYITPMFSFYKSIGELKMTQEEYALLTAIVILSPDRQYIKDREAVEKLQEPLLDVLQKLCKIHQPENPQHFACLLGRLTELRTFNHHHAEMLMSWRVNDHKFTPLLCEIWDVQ
T2 sequence (P19793 whole entry): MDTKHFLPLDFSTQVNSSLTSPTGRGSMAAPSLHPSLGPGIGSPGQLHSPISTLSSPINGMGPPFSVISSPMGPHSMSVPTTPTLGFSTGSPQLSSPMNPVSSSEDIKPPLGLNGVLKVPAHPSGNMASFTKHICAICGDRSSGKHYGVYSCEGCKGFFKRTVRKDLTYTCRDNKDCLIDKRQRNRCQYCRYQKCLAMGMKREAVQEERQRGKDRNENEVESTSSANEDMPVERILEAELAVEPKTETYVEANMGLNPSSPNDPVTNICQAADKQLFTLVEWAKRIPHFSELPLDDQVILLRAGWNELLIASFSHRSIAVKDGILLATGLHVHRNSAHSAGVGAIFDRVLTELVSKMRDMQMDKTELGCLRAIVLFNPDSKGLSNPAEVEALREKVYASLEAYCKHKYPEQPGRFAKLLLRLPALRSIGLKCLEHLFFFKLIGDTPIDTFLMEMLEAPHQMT
RARα, sequence (P10276 183-417 limits assumed, species assumed): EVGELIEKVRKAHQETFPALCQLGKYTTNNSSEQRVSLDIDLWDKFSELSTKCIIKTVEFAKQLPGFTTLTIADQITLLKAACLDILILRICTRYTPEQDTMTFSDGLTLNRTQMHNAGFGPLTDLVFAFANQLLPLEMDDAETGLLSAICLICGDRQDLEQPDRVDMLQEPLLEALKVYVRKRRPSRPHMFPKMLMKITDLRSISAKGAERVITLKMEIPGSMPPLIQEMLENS

| SMILES | infiltration of CD4+ cells into CNS (EAE in C57BL/6 (B6) mice) | infiltration of CD11c+ CD11b+ cells (myeloid DC) into CNS (EAE in C57BL/6 (B6) mice) | size of myelinated axons in the corpus callosum [1] | RARα activity detected (RARα) | densities of Olig2+ oligodendrocyte lineage cells and CC1+ differentiated oligodendrocytes in lesions ([2]; day 7 to 21, ± 20 ng/g s.c. thyroxine) | Mbp and Pdgfra expression (real-time qPCR of lesion samples) ([2]; ± 20 ng/g s.c. thyroxine) | Efficacy (% of 1 μM IRX4204) RXRγ (RXRγ) | CD4+ CD25hi cells frequency, spleen (EAE in B6 mice) | co-expression of IFNγ and IL-17A by CD4 T cells in CNS (EAE in B6 mice) | activation of LXRα/RXR heterodimer (LXRα/RXR) | activation of LXRβ/RXR heterodimer (LXRβ/RXR) | Foxp3 expression (Treg cells) [3] | IL-17A expression (Th17 cells) [3] | activation of FXR/RXR heterodimer (FXR/RXR) | OPC differentiation into oligodendrocytes (EGFP positive cells) [4] | health concerns during the treatment phase ([5]; 6 weeks) | number of SMI32 positive axonal ovoids in corpus callosum ([5]; compared to Vehicle, 6 weeks concurrent with CR) | Iba1 staining (microglial/macrophage activation) in corpus callosum ([5]; compared to vehicle) | effect on induction of Foxp3 expression by RXR agonist [6] |
| --- | --- | --- | --- | --- | --- | --- | --- | --- | --- | --- | --- | --- | --- | --- | --- | --- | --- | --- | --- |
| CC(/C=C/[C@@H]1C[C@]1(C)c1ccc2c(c1)C(C)(C)CCC2(C)C)=C\C(=O)O [IRX4204, 3,7-dimethyl-6(S),7(S)-methano,7-[1,1,4,4-tetramethyl-1,2,3,4-tetrahydronaphth-7-yl]2(E),4(E) heptadienoic acid] | significant reduction | significant reduction | significant increase | minimal activity | increased | increase | 0.09 ± 0.01 100 % of 1 μM IRX4204 | not altered | not significantly different between groups | not to transactivate; also recorded: does not activate | not to transactivate; also recorded: does not activate | increased | decreased | not to transactivate; also recorded: does not activate | significant increase; also recorded: dose dependent increase | no observed health concerns | not statistically different from the Vehicle | no difference | – |
| CCc1ccc(C2=CC(C)(C)Sc3ccc(C#Cc4ccc(C(=O)O)cc4)cc32)cc1 [Compound 194310] | – | – | – | – | – | – | – | – | – | – | – | – | – | – | – | – | – | – | only partially blocked |
